Where two headings read alike, the source gives them in different places.
Assays:
[1] = test system: Key Broadleaf Weed and Crop Species; test: Post-emergent Test II herbicidal activity (Table 5); format: in vivo; conditions: post-emergence, 336 h, post-emergent, 14 days after application; for pest or weed control at 70 g/ha: 70 g ai/ha; for pest or weed control at 140 g/ha: 140 g ai/ha
How it was run: (§1)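 Test species were raised 7–21 d under greenhouse conditions until reaching the first or second true leaf, sprayed with formulated compound at 187 L/ha, and kept subirrigated to avoid wash-off. Fourteen days later, damage was rated visually on a 0–100% scale against untreated plants.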

[2] = test system: Key Grass and Sedge Weeds as well as Grass Crops; test: Post-emergent Test II herbicidal activity (Table 6); format: in vivo; conditions: post-emergence, 336 h; for pest or weed control at 70 g/ha: application rate 70 g ai/ha; for pest or weed control at 140 g/ha: application rate 140 g ai/ha
How it was run: as §1

[3] = ABUTH: velvetleaf (Abutilon theophrasti), read-out: Visual Growth Reduction (%) 14 Days After Application ABUTH
[4] = AMARE: redroot pigweed (Amaranthus retroflexus), read-out: Visual Growth Reduction (%) 14 Days After Application AMARE
[5] = BRSNN: oilseed-rape, canola (Brassica napus), read-out: Visual Growth Reduction (%) 14 Days After Application BRSNN
[6] = CHEAL: lambsquarters (Chenopodium album), read-out: Visual Growth Reduction (%) 14 Days After Application CHEAL
[7] = EPHHL: wild poinsettia (Euphorbia heterophylla), read-out: Visual Growth Reduction (%) 14 Days After Application EPHHL
[8] = HELAN: sunflower (Helianthus annuus), read-out: Visual Growth Reduction (%) 14 Days After Application HELAN
[9] = VIOTR: wild pansy (Viola tricolor), read-out: Visual Growth Reduction (%) 14 Days After Application VIOTR
[10] = CYPES: yellow nutsedge (Cyperus esculentus), read-out: Visual Growth Reduction (%) 14 Days After Application, CYPES
[11] = DIGSA: crabgrass (Digitaria sanguinalis), read-out: Visual Growth Reduction (%) 14 Days After Application, DIGSA
[12] = ECHCG: barnyardgrass (Echinochloa crus-galli), read-out: Visual Growth Reduction (%) 14 Days After Application, ECHCG
[13] = ORYSA: rice (Oryza sativa), read-out: Visual Growth Reduction (%) 14 Days After Application, ORYSA
[14] = SETFA: giant foxtail (Setaria faberi), read-out: Visual Growth Reduction (%) 14 Days After Application, SETFA
[15] = SORVU: grain sorghum (Sorghum vulgare), read-out: Visual Growth Reduction (%) 14 Days After Application, SORVU
[16] = TRZSS (wheat, Triticum aestivum), read-out: Visual Growth Reduction (%) 14 Days After Application, TRZSS
[17] = ZEAMX: maize, corn (Zea mays), read-out: Visual Growth Reduction (%) 14 Days After Application, ZEAMX

SMILES: Nc1cc(-c2c(F)cc(I)c(F)c2F)nc(C(=O)O)c1Cl [Compound 68]
- pest or weed control at 70 g/ha [1, 3]: 85 to 94%
- pest or weed control at 140 g/ha [1, 3]: 85 to 94%
- pest or weed control at 70 g/ha [1, 4]: 95 to 100%
- pest or weed control at 140 g/ha [1, 4]: 95 to 100%
- pest or weed control at 70 g/ha [1, 5]: 95 to 100%
- pest or weed control at 140 g/ha [1, 5]: 95 to 100%
- pest or weed control at 70 g/ha [1, 6]: 95 to 100%
- pest or weed control at 140 g/ha [1, 6]: 95 to 100%
- pest or weed control at 70 g/ha [1, 7]: 95 to 100%
- pest or weed control at 140 g/ha [1, 7]: 95 to 100%
- pest or weed control at 70 g/ha [1, 8]: 60 to 74%
- pest or weed control at 140 g/ha [1, 8]: 0 to 29%
- pest or weed control at 70 g/ha [1, 9]: 95 to 100%
- pest or weed control at 140 g/ha [1, 9]: 95 to 100%
- pest or weed control at 70 g/ha [2, 10]: 95 to 100%
- pest or weed control at 140 g/ha [2, 10]: 95 to 100%
- pest or weed control at 70 g/ha [2, 11]: 75 to 84%
- pest or weed control at 140 g/ha [2, 11]: 75 to 84%
- pest or weed control at 70 g/ha [2, 12]: 85 to 94%
- pest or weed control at 140 g/ha [2, 12]: 75 to 84%
- pest or weed control at 70 g/ha [2, 13]: 45 to 59%
- pest or weed control at 140 g/ha [2, 13]: 45 to 59%
- pest or weed control at 70 g/ha [2, 14]: 85 to 94%
- pest or weed control at 140 g/ha [2, 14]: 75 to 84%
- pest or weed control at 70 g/ha [2, 15]: 95 to 100%
- pest or weed control at 140 g/ha [2, 15]: 95 to 100%
- pest or weed control at 70 g/ha [2, 16]: 30 to 44%
- pest or weed control at 140 g/ha [2, 16]: 45 to 59%
- pest or weed control at 70 g/ha [2, 17]: 0 to 29%
- pest or weed control at 140 g/ha [2, 17]: 75 to 84%
- melting point: 170.1 to 172.6 °C

SMILES: C=Cc1c(N)nc(-c2ccc(C(F)(F)F)c(F)c2)nc1C(=O)O [Compound 32, 6-Amino-2-(3-fluoro-4-(trifluoromethyl)phenyl)-5-vinylpyrimidine-4-carboxylic acid]
- pest or weed control at 70 g/ha [1, 3]: 60 to 74%
- pest or weed control at 140 g/ha [1, 3]: 60 to 74%
- pest or weed control at 70 g/ha [1, 4]: 75 to 84%
- pest or weed control at 140 g/ha [1, 4]: 95 to 100%
- pest or weed control at 70 g/ha [1, 5]: 0 to 29%
- pest or weed control at 140 g/ha [1, 5]: 45 to 59%
- pest or weed control at 70 g/ha [1, 6]: 95 to 100%
- pest or weed control at 140 g/ha [1, 6]: 95 to 100%
- pest or weed control at 70 g/ha [1, 7]: 95 to 100%
- pest or weed control at 140 g/ha [1, 7]: 95 to 100%
- pest or weed control at 70 g/ha [1, 8]: 85 to 94%
- pest or weed control at 140 g/ha [1, 8]: 85 to 94%
- pest or weed control at 70 g/ha [1, 9]: 0 to 29%
- pest or weed control at 140 g/ha [1, 9]: 0 to 29%
- pest or weed control at 70 g/ha [2, 10]: 0 to 29%
- pest or weed control at 140 g/ha [2, 10]: 45 to 59%
- pest or weed control at 70 g/ha [2, 11]: 0 to 29%
- pest or weed control at 140 g/ha [2, 11]: 0 to 29%
- pest or weed control at 70 g/ha [2, 12]: 75 to 84%
- pest or weed control at 140 g/ha [2, 12]: 75 to 84%
- pest or weed control at 70 g/ha [2, 13]: 0 to 29%
- pest or weed control at 140 g/ha [2, 13]: 0 to 29%
- pest or weed control at 70 g/ha [2, 14]: 0 to 29%
- pest or weed control at 140 g/ha [2, 14]: 0 to 29%
- pest or weed control at 70 g/ha [2, 15]: 60 to 74%
- pest or weed control at 140 g/ha [2, 15]: 60 to 74%
- pest or weed control at 70 g/ha [2, 16]: 0 to 29%
- pest or weed control at 140 g/ha [2, 16]: 0 to 29%
- pest or weed control at 70 g/ha [2, 17]: 45 to 59%
- pest or weed control at 140 g/ha [2, 17]: 60 to 74%
- melting point: 168 to 171 °C
